Structures are written as SMILES. Where two headings read alike, the source gives them in different places.

The target in this assay is T1, Brugia malayi Protein disulfide isomerase (BmPDI) (Brugia malayi, UniProt A0A1S0S010).
T1 construct: gene pdi; recombinant 6XHis-tagged BmPDI expressed in E. coli
The assay is described as follows: refolding of reduced denatured RNase A, RNA hydrolysis followed by absorbance at […] nm. Type of assay: biochemical.

For the molecule `NC[C@H]1O[C@H](O[C@H]2[C@H](O[C@@H]3O[C@H](CO)[C@@H](O)[C@H]3O)[C@@H](O)[C@H](N)C[C@@H]2N)[C@H](N)[C@@H](O)[C@@H]1O` [ribostamycin], 35.6 µM corresponded to half-maximal inhibition (IC50). Consider `O=C1C=CC(=C(c2ccc(O)cc2)c2ccc(O)cc2)C=C1` [aurin], for which the IC50 – broadly, the concentration at which inhibition is half-maximal – (read-out: IC50) stood at 17.6 µM.

Turning to `Cc1ccc(C(=O)Nc2ccc(S(=O)(=O)O)c3cc(S(=O)(=O)O)cc(S(=O)(=O)O)c23)cc1NC(=O)c1cccc(NC(=O)Nc2cccc(C(=O)Nc3cc(C(=O)Nc4ccc(S(=O)(=O)O)c5cc(S(=O)(=O)O)cc(S(=O)(=O)O)c45)ccc3C)c2)c1` [suramin], the IC50 (read-out: IC50) came out at 74.2 µM.

The values are drawn from paper PMC5547380, “Molecular cloning and characterization of protein disulfide isomerase of Brugia malayi, a human lymphatic filarial parasite” (EXCLI Journal, 2017).
